# From patent publication US20220112225A1, “ANANDAMIDE COMPOUNDS” (priority 2019, published 2022)
# Columns and labels:
# hMfsd2a [1] = molecular target: T1, hMfsd2a (Homo sapiens, UniProt Q8NA29); assay: In vitro Mfsd2a transport, thin layer chromatography (TLC) analysis; format: cell-based; conditions: transfected HEK293 cells, 50 μM test compound, 1 hour, iodine and cupric acetate stain
# T1 construct: expressed in transfected cells; host or cells: HEK293
# T1 sequence (Q8NA29 1-530 isoform Q8NA29-2): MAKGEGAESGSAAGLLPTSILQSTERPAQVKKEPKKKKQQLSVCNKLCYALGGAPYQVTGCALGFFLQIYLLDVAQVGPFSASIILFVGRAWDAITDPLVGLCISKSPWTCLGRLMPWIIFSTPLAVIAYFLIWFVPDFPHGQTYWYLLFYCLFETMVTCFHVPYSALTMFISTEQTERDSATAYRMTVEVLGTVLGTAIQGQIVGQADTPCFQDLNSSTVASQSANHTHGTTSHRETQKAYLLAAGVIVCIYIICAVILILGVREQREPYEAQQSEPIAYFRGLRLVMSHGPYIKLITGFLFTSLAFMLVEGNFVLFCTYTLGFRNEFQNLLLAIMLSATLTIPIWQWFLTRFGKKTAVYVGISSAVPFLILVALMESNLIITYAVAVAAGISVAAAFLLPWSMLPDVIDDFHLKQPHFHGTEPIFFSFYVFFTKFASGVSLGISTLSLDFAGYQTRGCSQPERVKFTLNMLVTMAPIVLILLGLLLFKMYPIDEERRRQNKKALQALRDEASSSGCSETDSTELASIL
# Procedure: (§1) The assay was conducted in a low throughput 6-well format with HEK293 cells prepared and then transfected in duplicate wells with plasmids containing either the wildtype (WT) version of hMfsd2a, the D97A mutant version, or an empty vector as control. Uptake into the ceils was assessed by both thin-layer chromatography (TLC) and ultrahigh performance liquid chromatography hyphenated mass spectrometry.
# (§2) HEK293 cells were seeded at 6.25×10^5 per 6-well in 2 mL of DMEM with 10% FBS and 1% penicillin-streptomycin (P/S) media (Sigma) and incubated overnight at 37° C. in 5% CO2. Cells were checked for confluency the next morning. On a per well basis the following lipid mix was generated, 6 μL of Lipofectamine 2000 was added dropwise to 200 μL of OptiMEM, this was left to stand for 5 minutes at room temperature (RT). 1 μg of hMfsd2a WT, D97A or empty plasmid was prepared in 200 μL of OptiMEM as appropriate for each well; the Lipofectamine 2000 in OptiMEM solution was then added dropwise to a total volume of 400 μL (this can be scaled to support the number of wells/plates to be assayed). This transfection preparation was then incubated at RT for 20 minutes. DMEM with 10% FBS and no P/S media was warmed to 37° C., the HEK293 plate media was changed and the cells washed carefully with 1 mL of the warmed DMEM with 10% FBS no P/S media, 1.6 mL of the warmed DMEM with 10% FBS no P/S media was then added to each well. 400 μL of the transfection preparation was then added dropwise to each well as appropriate and the plate was gently swirled in a circular motion. The plate was then incubated overnight at 37° C. in 5% CO2.
# (§3) Compound Incubation and Preparation of Analysis Samples Compound stock solutions were prepared in a 12% BSA in PBS solution such that a 40 μL spike into 2 ml, of plain DMEM would yield a concentration of 50 μM of test compound (the compound treated media). Remaining compound stock solution in 12% BSA in PBS was frozen at −20° C. to allow for media stability testing. The HEK293 6-well plate was removed from the incubator and the wells gently rinsed with 1 mL of plain DMEM that had been prewarmed to 37° C. 2 mL of the compound treated media was then added to each well. A 100 μL sample of the compound treated media was sampled to represent a T=0 h sample; 5 μL of this sample (the remainder was reserved and frozen in case of re-analysis being required) was diluted with 45 μL of DMEM and crashed with 50 μL MeCN in a 96-well plate which was sealed and kept on ice. The HEK293 6-well plate was then incubated at 37° C. in 5% CO2 for 1 hour, the plate was then removed from the incubator and a 100 μL sample of media taken from each well to represent a T=1 h sample; 5 μL of this sample (the remainder was reserved and frozen in case of re-analysis being required) was diluted with 45 μL of DMEM and crashed with 50 μL MeCN into the 96-well plate which was re-sealed and stored at −20° C. The remaining media was then removed from the HEK293 6-well plate, the wells were gently rinsed twice with 1 mL of 0.5% BSA in DMEM, the media was then removed and the 6-well plate allowed to dry completely at RT. 1 ml of 3:2 Hexane:Isopropanol (HIP) was added to each well in a fume cupboard and the plate allowed to stand for 30 minutes at RT without shaking. The HIP solution was then transferred to 2 mL Eppendorf tubes, and the process was repeated with a second 1 mL aliquot of HIP and the two aliquots combined. The HIP samples were then dried down under a nitrogen stream.
# Silica gel plates were prepared in a fume cupboard by initially drawing a line 1.5 cm from the bottom edge of the plate and then drawing sample lanes with a width of 1 cm and a separation of 0.5 cm between lanes. TLC buffer for phospholipids was prepared as a 31:62:7 solvent mix of Methanol:Chloroform:Ammonium Hydroxide. Plates were pre-run in a humid chamber containing 200 mL of the TLC buffer until the solvent front was 1.5 cm from the plate edge, the plate was then allowed to dry. […]
# hMfsd2a [2] = molecular target: T1, hMfsd2a; assay: In vitro Mfsd2a transport, UPLC-MS-MS analysis; format: cell-based; conditions: transfected HEK293 cells, 50 μM test compound, 1 hour
# Procedure: as §1, §2, §3
# HIP samples prepared as described above were reconstituted in 100 μL of MeCN, vortex mixed and inverted multiple times to ensure all surfaces of the Eppendorf tube were rinsed with the MeCN and finally pulse centrifuged. […]
# [3] = PO JVC rat terminal PK study at 20 mg/kg (tissue distribution); format: in vivo; conditions: rat, 20 mg/kg PO; for Brain to Blood Ratio (corrected): corrected for 15 μL of blood per gram of brain tissue
# Procedure: Compound 3 was orally dosed at 20 mg/kg to a group of nine, jugular vein cannulated, individually housed male Sprague Dawley rats that were fasted overnight and fed 4 h post-dose to assess its tissue distribution profile. Dosing was performed with 5 mL/kg dosing volumes with 5% DMSO, 95% water used as a dosing vehicle. Terminal blood samples (>230 μL) were taken from groups of 3 animals at each of 3 time-points post dose (1 h, 2 h, and 4 h) by cardiac puncture under CO2 into heparinised Eppendorf tubes (containing 5 μL heparin) on ice containing an equal quantity of water. Two 100 μL aliquots were then placed in duplicate 96 well plates on dry ice. Immediately after blood sampling, brain and eye pair samples were excised, weighed, rinsed, blotted, and snap frozen in liquid N2. Samples were stored in the freezer at −20° C. until bioanalysis.
# Tissue samples were weighed and a volume of water 3 times the mass added to samples before homogenization. In the case of eyeballs the lens could not be homogenized, but all other tissues homogenized. The resulting data (tissue distribution parameters) are shown below in Table 2.
substance,measurement,setting,value
"2-(5Z,8Z,11Z,14Z)-icosa-5,8,11,14-tetraenamidoethyl (trimethylammonio) ethylphosphate [Compound 3]",Transport via Mfsd2a: TLC band intensity in WT cells compared with D97A mutant Mfsd2a and/or empty vector cells,hMfsd2a [1],transported via Mfsd2a
same,Transport via Mfsd2a: concentration in HIP samples from WT cells compared with D97A mutant Mfsd2a and/or empty vector cells,hMfsd2a [2],transported via Mfsd2a
same,Brain to Blood Ratio (corrected),[3]; 1 h,0.25
same,Blood,[3]; 1 h post dose,108.4 ng/mL
same,Brain,[3]; 1 h post dose,28.3 ng/g
same,Eye,[3]; 1 h post dose,1035.4 ng/g
same,Brain to Blood Ratio (corrected),[3]; 2 h,1.69
same,Blood,[3]; 2 h post dose,16.7 ng/mL
same,Brain,[3]; 2 h post dose,28.5 ng/g
same,Eye,[3]; 2 h post dose,105.0 ng/g
same,Brain to Blood Ratio (corrected),[3]; 4 h,2.69
same,Blood,[3]; 4 h post dose,12.8 ng/mL
same,Brain,[3]; 4 h post dose,34.6 ng/g
same,Eye,[3]; 4 h post dose,104.4 ng/g
